Test system: CCRF S-180
Test: In vitro inhibitory concentration against growth of mouse sarcoma 180 (S-180) cells
Type: functional, cell-based

CISPLATIN
IC50: 1.07 µM
